Data reported in PubChem BioAssay (NCI).
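Exposure lasted 48 hours, with cells grown in 96-well plates and compounds tested at five concentrations. GI50 is the concentration that inhibits growth by half. TGI: concentration producing complete growth inhibition.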

Experiments:
Test in all cases: inhibition of tumour cell growth, NCI panel, 48 h
KM20L2 colon = tested on: KM20L2 colon
DMS 114 small cell lung = tested on: DMS 114 small cell lung
DLD-1 colon = tested on: DLD-1 colon
NCI/ADR-RES ovarian = tested on: NCI/ADR-RES ovarian
MDA-MB-435 = tested on: MDA-MB-435
MCF7 breast = tested on: MCF7 breast
PC-3 prostate = tested on: PC-3 prostate
HS 578T breast = tested on: HS 578T breast
LXFL 529 NSCLC = tested on: LXFL 529 NSCLC

| Compound | TGI (KM20L2 colon) [µM] | TGI (DMS 114 small cell lung) [µM] | TGI (DLD-1 colon) [µM] | GI50 (NCI/ADR-RES ovarian) [µM] | TGI (NCI/ADR-RES ovarian) [µM] | GI50 (MDA-MB-435) [µM] | TGI (MDA-MB-435) [µM] | GI50 (MCF7 breast) [µM] | TGI (MCF7 breast) [µM] | GI50 (PC-3 prostate) [µM] | TGI (PC-3 prostate) [µM] | GI50 (HS 578T breast) [µM] | TGI (HS 578T breast) [µM] | TGI (LXFL 529 NSCLC) [µM] |
| --- | --- | --- | --- | --- | --- | --- | --- | --- | --- | --- | --- | --- | --- | --- |
| Cc1cc2nc3c(C(OC4OC(CO)C(O)C(O)C4O)C(O)CO)nn(-c4ccccc4)c3nc2cc1C (centres undefined) | > 100 | > 100 | > 100 | – | – | – | – | – | – | – | – | – | – | – |
| CN1CCN(Cc2ccc(NC(=O)c3cncc(C#Cc4cnc(N)c5ccc(F)cc45)c3)cc2C(F)(F)F)CC1 | – | – | – | 3.22 | 10.4 | 1.24 | 4.99 | 1.27 | 5.43 | 1.39 | 6.68 | 1.17 | 12.2 | – |
| Nc1nc(-c2cccc([N+](=O)[O-])c2)c(Br)c(=O)[nH]1 | – | – | – | – | > 100 | – | > 100 | – | > 65.3 | – | > 100 | – | > 100 | – |
| CCCCCCNC(=O)C1=C(C)NC(C)=C(C(=O)NCCCCCC)C1 | – | – | – | – | > 100 | – | > 100 | – | > 100 | – | > 100 | – | > 100 | – |
| CCN(CC)c1ccc(N=Nc2ccc(-c3nc4cccnc4o3)cc2)cc1 | > 100 | > 100 | > 100 | – | – | – | – | – | – | – | – | – | – | > 100 |
| CCCC(=O)c1c(NOC2OC(COC(C)=O)C(OC(C)=O)C(OC(C)=O)C2OC(C)=O)nc(OC)n(C)c1=O (centres undefined) | > 100 | > 100 | > 100 | – | – | – | – | – | – | – | – | – | – | > 100 |
| O=[N+]([O-])c1ccc2[nH]cc(-c3c4ccsc4cc4[nH]c5ccc([N+](=O)[O-])cc5c34)c2c1 | – | – | – | 0.744 | 8.22 | 0.145 | 33.3 | 0.606 | 4.75 | 0.931 | 6.36 | 0.824 | 5.49 | – |
| Cc1c(CCCl)c(=O)n2c([nH]c3ccccc32)c1C#N | – | – | – | – | 2.7 | – | 4.05 | – | > 10 | – | 2.82 | – | 4.89 | – |
| CC(=O)Oc1cc(C)ccc1[C@]1(C)CC[C@H](C)/C1=C\Br | – | – | – | 2.68 | 7.94 | 1.49 | 3.89 | 4.07 | 15.3 | 3.33 | 12.3 | 3.03 | 13.9 | – |
| O=C(Nc1ccccc1C(F)(F)F)c1cccc(NC2=C(Cl)C(=O)N(Cc3ccccc3)C2=O)c1 | – | – | – | 9.14 | 40.7 | 4.2 | > 33 | 2.68 | 27.1 | 8.78 | > 53 | 8.27 | 28.5 | – |
| Cc1ccc(C(=O)c2oc3ccc4c(C)cc(=O)oc4c3c2C)cc1 | – | – | – | 10.2 | > 100 | 5.95 | > 100 | 5.95 | > 100 | 5.64 | > 100 | 19.4 | > 100 | – |
| CCCCC#COP(=O)(OCC)OCC | > 100 | > 100 | > 100 | – | – | – | – | – | – | – | – | – | – | > 100 |
| COc1ccc2c(c1)C(=O)CC(N)C2 (centres undefined) | – | – | – | – | > 100 | – | > 100 | – | > 100 | – | > 100 | – | > 100 | – |
| CN1CC(c2ccccc2)N(CCCCN2CC(c3ccccc3)N(C)CC2c2ccccc2)CC1c1ccccc1 (centres undefined) | – | – | – | – | > 100 | – | > 100 | – | > 100 | – | > 100 | – | > 100 | – |
| COC1=CC23C=CC1[C@@H](c1ccccc1)C2=C(C)C(=O)N3C(=O)NC1CCCCC1 (some centres undefined) | 50.7 | – | – | – | – | – | – | – | – | – | – | – | – | – |
| COc1cc2nc(-c3ccc(C(F)(F)F)cc3)cc(OCCCN3CCOCC3)c2cc1OC | – | – | – | 0.64 | 22.7 | 1.2 | 3.57 | 1.55 | 11.7 | 2.19 | 16.5 | 2.25 | 9.24 | – |
| C=CCNC(=S)N1CC(C)C(=O)Nc2ccccc21 (centres undefined) | > 100 | > 100 | – | – | – | – | – | – | – | – | – | – | – | > 100 |
| O=c1cc(-c2ccccc2)[nH]c2cccc(S)c12 | – | – | – | – | 0.236 | – | – | – | > 100 | – | > 100 | – | > 100 | – |
| CC(=O)N/C(=C\c1ccc(/C=C(\NC(C)=O)c2nc3ccc(Cl)cc3[nH]2)cc1)c1nc2ccccc2[nH]1 | > 100 | > 100 | > 100 | – | – | – | – | – | – | – | – | – | – | > 100 |
| O=C1c2cc(Br)ccc2-c2c1c1ccc([N+](=O)[O-])cc1c(=O)n2CCCCl | – | – | – | 0.239 | 7.9 | 0.489 | 6.12 | < 0.01 | > 44 | 0.184 | > 100 | 19.5 | > 72.5 | – |
| CC(=O)NC1=N/C(=C/c2cc([N+](=O)[O-])ccc2O)CN1C | – | – | – | – | > 100 | – | > 100 | – | > 100 | – | > 100 | – | – | – |
| CCOC(=O)[C@@H](C)C[C@H](Cc1ccccc1)NC(=O)c1csc([C@@H](C[C@H](C(C)C)N(C)C(=O)[C@@H](NC(=O)[C@H]2C[C@H](O[Si](C)(C)C(C)(C)C)CCN2C)C(C)C)OC(C)=O)n1 | – | – | – | 1.29 | 5.03 | 0.0389 | 0.165 | 0.132 | > 8.33 | 0.22 | > 8.33 | 0.217 | 1.35 | – |
| Oc1ccc(N=Nc2ccc(Cl)cc2)cc1 | – | – | – | – | 51.3 | – | 29 | – | 35.9 | – | 29.3 | – | 73.3 | – |
| COc1cc2c(cc1OCc1ccccc1)N=C[C@@H]1C/C(=C/C(=O)NCCCN3C(=O)c4cccc5cccc(c45)C3=O)CN1C2=O | – | – | – | 12.8 | > 100 | 0.673 | 3.05 | 0.256 | 14.3 | 0.351 | 9.35 | 0.539 | 6.51 | – |
| S=C(Nc1ccc(-c2nc3ccccc3[nH]2)cc1)NC1CCCCC1 | – | – | – | 28.6 | 82.2 | 16.4 | 43.3 | 19.7 | > 100 | 36.6 | – | 26.1 | – | – |
| COc1cc(OC2OC(C)C(O)C(O)C2O)cc2oc(-c3ccc(O)cc3)c(CC=C(C)C)c(=O)c12 (centres undefined) | – | – | – | 24.3 | 93.3 | 20.5 | 59.9 | 13.9 | 48.2 | 8.32 | 28.4 | 24 | > 100 | – |
| C=CC(=O)N1CCCC(n2nc(-c3ccc(Oc4ccccc4)cc3)c3c(N)ncnc32)C1 (centres undefined) | – | – | – | 4.27 | 34.8 | 7.85 | 22.5 | 7.88 | 23.9 | 10 | 24.2 | 7.66 | 45.7 | – |
